The source of these data is patent US20220175756A1, “APPLICATION OF COMBINATION OF QUINOLINE DERIVATIVE AND IMMUNOMODULATOR IN PREPARATION OF ANTITUMOR DRUGS” (CHONGQING PHARMACEUTICAL INDUSTRIAL RESEARCH INSTITUTE CO., …, priority 2019, published 2022).

Structures are written as SMILES.

In the test the test system is CT26 mouse colon carcinoma cell strain. Put plainly: In vivo anti-tumor activity in mouse CT26 colon tumor model. On the procedure: The experimental purposes was to investigate the in vivo anti-tumor effect of the combination of the test compound with a mouse anti-PD-1 antibody against the mouse colon cancer in CT26 tumor model.
Female Balb/c mice were subcutaneously inoculated with CT26 mouse colon carcinoma cell strain, and randomly grouped based on their body weight, after inoculation. And, they were administered as follows.
To the first group (a control group), the administration was started in the afternoon of the day of vaccination in a way that vehicle 1 (10% DMSO+10% Solutol+80% DDH2O) was administered intragastrically twice a day at a dosage of 0.1 mL/10 g body weight each time, and when the tumor had grown to a volume of about 60 mm^3 after the inoculation, it started to do administration in a way that vehicle 2 (DPBS) was given twice a week through intraperitoneal injection at a dosage of 0.1 mL/10 g body weight at each time.
To the second group, when the tumor had grown to a volume of about 60 mm^3 after the inoculation, it started to do administration in a way that anti-mouse PD-1 antibody (RMP1-14, supplied by BioXcell) was given through intraperitoneal injection twice a week at a dosage of 3 mg/kg body weight at each time. […]
During the experiment, the mice were weighed three times a week, and after the tumor formed, the tumor volume was measured three times a week at each time when the body weight was measured, and calculated following the equation: length×width^2/2. Tumor proliferation rate was calculated following the equation: Tumor proliferation rate=Tumor volume in the treatment group/Tumor volume in the control group×100%.
The differences between groups were statistically analyzed by Student's t-test, and p<0.05 was considered to be a significant difference.

On to `COc1cc2nccc(Oc3ccc(NC(=O)NC4CC4)c(Cl)c3F)c2cc1C(N)=O` [Example 1], for which, under “day 25, Example 1 10 mg/kg intragastrically once a day in combination with anti-mouse PD-1 antibody RMP1-14 3 mg/kg i.p. twice a week, female Balb/c mice, p<0.01”, the Tumor proliferation rate is on record as 15.38%. The “Anti-tumor activity in combination with PD-1 antibody (in words)” value (mouse CT26 tumor model, combination with PD-1 antibody) was “significant anti-tumor activity”. The “Effect on anti-tumor effect of PD-1 antibody (in words)” value (tumor volumes on day 25, combination group vs single antibody group, p<0.05) was “significantly enhanced anti-tumor effect on PD-1 antibody”.
